{"source": "patent US20230114207A1", "about": "“THE COMBINATION OF CYCLIN DEPENDENT KINASE 7 INHIBITOR AND IMMUNOTHERAPY FOR TREATMENT OF CANCER” (Dana-Farber Cancer Institute, Inc., priority 2019, published 2023)", "tested_on": "intratumoral cell populations, RPP orthotopic mice", "test": "Single-cell RNA sequencing of tumor-bearing lungs", "type": "in vivo, mouse", "method": "To account for interindividual variability, we harvested pooled fresh tumor-bearing lungs from two mice in two independent cohorts of RPP orthotopic mice which were treated with control, YKL-5-124, anti-PD-1 and combination treatment for seven days. Single cell suspensions were achieved as described above and were sorted using DAPI staining. Cells were then resuspended into single cells with 0.4% BSA for 10× genomics processing. Cell suspensions were loaded onto a 10× Genomics Chromium instrument to generate single-cell gel beads in emulsion (GEMs). Approximately 5,000 to 10,000 cells were loaded per channel. scRNA-seq libraries were prepared using the following Single Cell 3′ Reagent Kits: Chromium™ Single Cell 3′ Library & Gel Bead Kit v2 (PN-120237), Single Cell 3′ Chip Kit v2 (PN-120236) and i7 Multiplex Kit (PN-120262) (10× Genomics, Pleasanton, Calif., USA), and following the Single Cell 3′ Reagent Kits v2 User Guide (Manual Part #CG00052 Rev A). Libraries were run on an Illumina HiSeq 4000 system (SY-401-4001, Illumina) as 2×150 paired-end reads, one full lane per sample, for approximately >90% sequencing saturation.\nThe Cell Ranger Single Cell Software Suite, version 1.3 was used to perform sample de-multiplexing, barcode and UMI processing, and single-cell 3′ gene counting. A detailed description of the pipeline and specific instructions to run it can be found at: https://Support.10×genomics.com/single-cell-gene-expression/software/pipelines/latest/what-is-cell-ranger). A high quality gene expression matrix was created in sequential preprocessing steps as provided in the Seurat (v2.3.4) pipeline. First only genes that were detected in both independent scRNAseq datasets were retained and cells were excluded if respectively more than […] of detected genes were from mitochondrial or ribosomal origin or if less than 500 genes were detected. The count matrix was subsequently log-normalized with a scale-factor of 10000 and the obtained normalized matrix was further corrected by retaining the residuals after regressing out systematic changes due to number of detected UMIs, percent genes from mitochondrial or ribosomal origin.\nCells from both independent datasets were merged together in canonical correlation (CC) space using the intersection of highly variable genes, identified as genes with higher-than-expected variability in consecutive ranked expression bins, from both datasets. The implementation of CC alignment and selection of downstream dimensions to use was performed as described in the Seurat package. Cells were clustered using the Louvain algorithm based on a shared nearest-neighbor network. The final resolution of all subsequent clustering analyses was determined by the biological questions and the need for coarse or fine-grained detail as explored in the subsequent cluster annotation. Clusters were annotated using input from multiple sources, we i) calculated a stromal, cancer and immune score using the estimate (v1.0.13) package in R, ii) identified cluster specific gene expression markers based on gini-scores, iii) created a hierarchical tree based on Pearson correlation scores between clusters to visualize lineage relationships and iv) compared clusters to those of the Immgen database using the SingleR (v0.2.1) package in R. UMAP as implemented by the uwot (v0.0.0.9010) package in R was used to visualize clusters in 2D CC space. Overall this strategy was hierarchically used to assess all cells, cancer cells only, immune cells only and finally T-cells only.\nIn the first clustering step, several additional analyses were performed to remove dubious or non-reproducible clusters from downstream analyses. To identify contamination of immune cell clusters with cancer cells we performed k-means (2 centers) clustering on all cells on identified and known canonical markers (Epcam, Calca, Stmn1, Ascl1, Krt7, Nfib, Krt8, Krt18) specific to cancer cells. […]"}
{"compound": "C=CC(=O)Nc1ccc(C(=O)Nc2n[nH]c3c2CN(C(=O)N[C@H](CN(C)C)c2ccccc2)C3(C)C)cc1", "note": "[YKL-5-124]", "values": [{"measurement": "frequencies of total immune cell components", "setting": "compared with control group", "result": "increase"}, {"measurement": "DCs", "setting": "in comparison to control", "result": "increase"}, {"measurement": "myeloid compartments", "setting": "in comparison to control", "result": "higher numbers of monocytes and neutrophils"}, {"measurement": "percentage of total T cells, NK cells and ILC cells", "setting": "in comparison to control", "result": "significant increase"}, {"measurement": "genes within the 'cell-cycle' and 'E2F target' signatures (GSEA)", "setting": "in vivo", "result": "significantly downregulated"}, {"measurement": "immune response signaling ('Interferon gamma response', 'Inflammatory response')", "setting": "in vivo", "result": "triggered robust immune response signaling"}, {"measurement": "cell-cycle state distribution of cancer cells", "setting": "in vivo, seven days", "result": "mainly arrested at G1 phase"}, {"measurement": "percentage of S phase cells (cluster 4, 5 and 6)", "setting": "in vivo, seven days", "result": "significant decrease"}, {"measurement": "c0, c8 and c9 clusters of naive-like CD8^+ T cells", "setting": "mouse, in vivo", "result": "reduction"}, {"measurement": "c4 percentage", "setting": "mouse, in vivo", "result": "slight reduction"}]}
